Key:
[1] = tested on: Prickly Sida; test: Field preemergence test, weed control; assay type: in vivo; conditions: 3-4 weeks after planting
Description: (§1) Test plots of fertilized, light sandy soil containing 0.7% organic matter are sprayed uniformly with aqueous suspensions prepared from emulsifiable concentrates containing 12%, by weight, of the test chemicals diluted to provide dosage rates of the test compounds corresponding to 2.0, 1.0, 0.5, and 0.25 pound per acre (lb/A). The plots are then sown with seeds of the following crop plants: sweet corn, cotton (Coker 413) and soybeans, var. Davis. Seeds of the following weed plants are planted: redroot pigweed, prickly sida, common lambsquarter, goosegrass and giant foxtail.
(§2) Three to four weeks after planting, percent control (plant kill) of the test plants is estimated, from a rating of 0 which denotes no injury to the plant up to 100 which denotes complete destruction. The herbicidal action of the test compounds obtained on the weed species is as follows: […]

[2] = tested on: Giant Foxtail; test: Field preemergence test, weed control; assay type: in vivo; conditions: 3-4 weeks after planting
Description: as §1, §2

[3] = tested on: Common Lambsquarter; test: Field preemergence test, weed control; assay type: in vivo; conditions: 3-4 weeks after planting
Description: as §1, §2

[4] = tested on: Redroot Pigweed; test: Field preemergence test, weed control; assay type: in vivo; conditions: 3-4 weeks after planting
Description: as §1, §2

[5] = tested on: Goosegrass; test: Field preemergence test, weed control; assay type: in vivo; conditions: 3-4 weeks after planting
Description: as §1, §2

[6] = tested on: corn; test: Example 17 damage to corn crop; assay type: in vivo; conditions: 1 lb/A
Description: (§3) This example illustrates the selective herbicidal activity of two of the presently preferred compounds of this invention against various weed species in a corn crop.
(§4) Plots of light sandy soil, cleared of all weeds, are uniformly treated with aqueous dispersions prepared from an emulsifiable concentrate containing 2- 4 pounds of active ingredient per gallon. Diluted aqueous dispersions are applied as surface treatments at 2.0, 1.0, 0.5, and 0.25 pound of active ingredient per acre (lb/A).
(§5) The treated test plots are sown to corn and with seeds of the following weed species:
(§6) Three to four weeks after planting, the degree of damage to both the corn stands and the weed plants is assessed from a rating of 0% (no injury) to 100% (complete destruction).

[7] = tested on: Sorghum; test: Example 18 phytotoxic effects on crop stands in different soils; assay type: in vivo, grain sorghum
Experimental: (§7) To further illustrate the herbicidal activity of compounds of this invention in different types of soil as would be encountered in different crop growing localities, a preemergence herbicide test is conducted generally as outlined previously herein. Two light sandy soils are employed containing 0.7% and 1.8% organic matter (O.M.), respectively, along with two loam-type, heavier soils containing either 2.0% or 5-5.5% organic matter (O.M.).
(§8) The test plots are all sprayed uniformly with formulations of the test compounds providing 2.0, 1.0, 0.5, and 0.25 pound of active chemical per acre (lb/A).
(§9) Prior to treatment, the soil plots are sown to field corn, soybean, and grain sorghum crops and seeds of barnyard-grass and yellow foxtail.
(§10) Three weeks after planting, the percent control of plant growth is rated from 0% (no injury) to 100% (total destruction). The results obtained are as follows:
(§11) Phytotoxic effects on the crop stands are similarly rated with the following results: […]

[8] = tested on: Barnyardgrass; test: Example 17 selective herbicidal activity in corn crop, weed kill; assay type: in vivo, Echinochloa crusgalli; conditions: Echinochloa crus-galli, 3-4 weeks after planting
Description: as §3, §4, §5, §6

[9] = tested on: Morningglory; test: as above; assay type: in vivo, Ipomoea sp.; conditions: Ipomoea, 3-4 weeks after planting
Description: as §3, §4, §5, §6

[10] = tested on: Soybeans; test: Example 18 phytotoxic effects on crop stands in different soils; assay type: in vivo, soybean
Experimental: as §7, §8, §9, §10, §11

[11] = tested on: Soybeans; test: Field preemergence test, phytotoxic effects on crop; assay type: in vivo, var. Davis
Description: as §1
Three to four weeks after planting, percent control (plant kill) of the test plants is estimated, from a rating of 0 which denotes no injury to the plant up to 100 which denotes complete destruction. The herbicidal action of the test compounds obtained on the weed species is as follows:
Phytotoxic effects observed on the crop species is estimated with results as follows: […]

[12] = tested on: Yellow Foxtail; test: Example 17 selective herbicidal activity in corn crop, weed kill; assay type: in vivo, Setaria lutescens; conditions: Setaria, 3-4 weeks after planting
Description: as §3, §4, §5, §6

[13] = tested on: Corn; test: Example 18 phytotoxic effects on crop stands in different soils; assay type: in vivo, field corn
Experimental: as §7, §8, §9, §10, §11

[14] = 0.5 lb/A, Heavy Soil 5-5.5% O.M.
[15] = 0.5 lb/A, Medium Soil 2.0% O.M.
[16] = 1.0 lb/A, Heavy Soil 5-5.5% O.M.
[17] = 1.0 lb/A, Medium Soil 2.0% O.M.
[18] = 2.0 lb/A, Heavy Soil 5-5.5% O.M.
[19] = 2.0 lb/A, Medium Soil 2.0% O.M.

C#CCN(C(=O)CCl)c1c(C)cccc1CC [Example 15, 2-Chloro-2'-methyl-6'-ethyl-N-propargylacetanilide]
% Weed Control, Prickly Sida ([1]; 0.25 lb/A): 0%
% Weed Control, Prickly Sida ([1]; 0.5 lb/A): 55%
% Weed Control, Prickly Sida ([1]; 1.0 lb/A): 93%
% Weed Control, Prickly Sida ([1]; 2.0 lb/A): 97%
% Weed Control, Giant Foxtail ([2]; 0.25 lb/A): 47%
% Weed Control, Giant Foxtail ([2]; 0.5 lb/A): 78%
% Weed Control, Giant Foxtail ([2]; 1.0 lb/A): 97%
% Weed Control, Giant Foxtail ([2]; 2.0 lb/A): 100%
% Weed Control, Common Lambsquarter ([3]; 0.25 lb/A): 95%
% Weed Control, Common Lambsquarter ([3]; 0.5 lb/A): 98%
% Weed Control, Common Lambsquarter ([3]; 1.0 lb/A): 100%
% Weed Control, Common Lambsquarter ([3]; 2.0 lb/A): 100%
% Weed Control, Redroot Pigweed ([4]; 0.25 lb/A): 65%
% Weed Control, Redroot Pigweed ([4]; 0.5 lb/A): 89%
% Weed Control, Redroot Pigweed ([4]; 1.0 lb/A): 100%
% Weed Control, Redroot Pigweed ([4]; 2.0 lb/A): 100%
% Weed Control, Goosegrass ([5]; 0.25 lb/A): 87%
% Weed Control, Goosegrass ([5]; 0.5 lb/A): 97%
% Weed Control, Goosegrass ([5]; 1.0 lb/A): 100%
% Weed Control, Goosegrass ([5]; 2.0 lb/A): 100%
injury to the corn [6]: no injury
% Phytotoxicity, Sorghum [7, 14]: 45%
% Phytotoxicity, Sorghum [7, 15]: 60%
% Phytotoxicity, Sorghum ([7]; 0.5 lb/A, Sand 0.7% O.M.): 0%
% Phytotoxicity, Sorghum ([7]; 0.5 lb/A, Sand 1.8% O.M.): 20%
% Phytotoxicity, Sorghum [7, 16]: 90%
% Phytotoxicity, Sorghum [7, 17]: 100%
% Phytotoxicity, Sorghum ([7]; 1.0 lb/A, Sand 0.7% O.M.): 15%
% Phytotoxicity, Sorghum ([7]; 1.0 lb/A, Sand 1.8% O.M.): 65%
% Phytotoxicity, Sorghum [7, 18]: 99%
% Phytotoxicity, Sorghum [7, 19]: 100%
% Phytotoxicity, Sorghum ([7]; 2.0 lb/A, Sand 0.7% O.M.): 50%
% Phytotoxicity, Sorghum ([7]; 2.0 lb/A, Sand 1.8% O.M.): 90%
mortality at 280.212 g/ha ([8]; 0.25 lb/A): 88%
mortality at 560.425 g/ha ([8]; 0.5 lb/A): 100%
mortality at 1120.85 g/ha ([8]; 1.0 lb/A): 100%
mortality at 2241.7 g/ha ([8]; 2.0 lb/A): 100%
mortality at 280.212 g/ha ([9]; 0.25 lb/A): 0%
mortality at 560.425 g/ha ([9]; 0.5 lb/A): 0%
mortality at 1120.85 g/ha ([9]; 1.0 lb/A): 0%
mortality at 2241.7 g/ha ([9]; 2.0 lb/A): 6%
% Phytotoxicity, Soybeans [10, 14]: 0%
% Phytotoxicity, Soybeans [10, 15]: 0%
% Phytotoxicity, Soybeans ([10]; 0.5 lb/A, Sand 0.7% O.M.): 0%
% Phytotoxicity, Soybeans ([10]; 0.5 lb/A, Sand 1.8% O.M.): 0%
% Phytotoxicity, Soybeans [10, 16]: 0%
% Phytotoxicity, Soybeans [10, 17]: 0%
% Phytotoxicity, Soybeans ([10]; 1.0 lb/A, Sand 0.7% O.M.): 0%
% Phytotoxicity, Soybeans ([10]; 1.0 lb/A, Sand 1.8% O.M.): 0%
% Phytotoxicity, Soybeans [10, 18]: 0%
% Phytotoxicity, Soybeans [10, 19]: 0%
% Phytotoxicity, Soybeans ([10]; 2.0 lb/A, Sand 0.7% O.M.): 0%
% Phytotoxicity, Soybeans ([10]; 2.0 lb/A, Sand 1.8% O.M.): 0%
% Crop Kill, Soybeans ([11]; 0.5 lb/A): 0%
% Crop Kill, Soybeans ([11]; 1.0 lb/A): 3%
% Crop Kill, Soybeans ([11]; 2.0 lb/A): 13%
mortality at 280.212 g/ha ([12]; 0.25 lb/A): 82%
mortality at 560.425 g/ha ([12]; 0.5 lb/A): 97%
mortality at 1120.85 g/ha ([12]; 1.0 lb/A): 100%
mortality at 2241.7 g/ha ([12]; 2.0 lb/A): 100%
% Phytotoxicity, Corn [13, 14]: 0%
% Phytotoxicity, Corn [13, 15]: 0%
% Phytotoxicity, Corn ([13]; 0.5 lb/A, Sand 0.7% O.M.): 0%
% Phytotoxicity, Corn ([13]; 0.5 lb/A, Sand 1.8% O.M.): 0%
% Phytotoxicity, Corn [13, 16]: 0%
% Phytotoxicity, Corn [13, 17]: 10%
% Phytotoxicity, Corn ([13]; 1.0 lb/A, Sand 0.7% O.M.): 0%
% Phytotoxicity, Corn ([13]; 1.0 lb/A, Sand 1.8% O.M.): 0%
% Phytotoxicity, Corn [13, 18]: 10%
% Phytotoxicity, Corn [13, 19]: 55%
% Phytotoxicity, Corn ([13]; 2.0 lb/A, Sand 0.7% O.M.): 10%
% Phytotoxicity, Corn ([13]; 2.0 lb/A, Sand 1.8% O.M.): 0%
